Source: US4591600A, “3-hydroxyflavones: their preparation and therapeutic application” (Societe Cortial, S.A., priority 1983, dated 1986)

Key:
aldose reductase = molecular target: T1, aldose reductase (Bos taurus, UniProt P16116); test: Inhibition of aldose reductase in vitro; type: biochemical; conditions: enzyme from beef crystalline lenses; glyceraldehyde reduction, NADPH spectrophotometry
T1 construct: The enzyme was extracted from beef crystalline lenses; from tissue; host or cells: beef crystalline lenses
Description: The enzyme was extracted from beef crystalline lenses by the method described by S. Hayman and J. H. Kinoshita (J. Biol. Chem. 1965, 240, (2), 877). The percentage of inhibition of the capacity of the enzyme to reduce glyceraldehyde to glycerol under the effect of the product to be tested was determined by spectrophotometric determination of the amount of NADPH reacting according to the method described by Hayman and Kinoshita.

[1] = test system: hypercholesterolemic mice; test: Hypolipidemic activity in hypercholesterolemic mice; type: in vivo; conditions: 400 mg/kg orally, twice at 20 hour intervals
Description: The products, object of this invention, are useful as hypolipidemic agents. Thus, COR 1983 administered twice in a dose of 400 mg/kg orally at 20 hour intervals in hypercholesterolemic mice caused 24% reduction in cholesterolemia.

mice = test: Toxicity in mice
Description: (§1) The toxicity of the products of this invention was determined in mice.

Toxicity in mice = conditions: mouse, in vivo, ip, 200 mg/kg
Description: as §1

[2] = test system: neuropathy induced by streptozotocin; test: Streptozotocin neuropathy in rats (sciatic nerve sorbitol and inositol, glycemia); type: in vivo; conditions: for inositol level in sciatic nerves / sorbitol level in sciatic nerves: streptozotocin 100 mg/kg i.p.; for inositol level in sciatic nerves: 3rd day, controls 2.174±0.481; for sorbitol level in sciatic nerves: controls 0.819±0.215; for glycemia: streptozotocin, D 3, controls 4.72±0.60
Description: 4 batches of 10 rats weighing about 200 g were treated from D--2 to D+3 with a gummy julep of the product to be tested. At D 0 the animals received an i.p. injection of 100 mg/kg of streptozotocin dissolved in a citrate buffer. The glycemia was determined 24 hours and 3 days after injection of the diabetogenic agent. The rats were sacrificed on the 3rd day after streptozotocin injection and the sciatic nerves were removed to determine the sorbitol and inositol levels. Tested under these condition, COR 1988 caused a reduction of the sorbitol level that went from 0.819±0.215 mg/kg in the controls to 0.608±0.049 mg/kg in animals treated with 50 mg/kg and to 0.482±0.091 mg/kg in animals treated with 100 mg/kg. Also the inositol level went from 2.174±0.481 mg/kg in the controls to 1.593±0.109 mg/kg in the animals treated wtih 25 mg/kg, to 1.430+0.104 mg/kg in the animals treated with 50 mg/kg and to 1.402±0.130 mg/kg in animals treated with 100 mg/kg. The sorbitol and inositol levels after treatment were compared with the control levels by the U test of Mann and Whitney (D. Schwartz, Methodes statistique a 1' usage des medecins et biologists [Statistical method for use by physicians and biologistes], Ed. Flammarion, Paris 1963). The results obtained are significant with p<1%. Glycemia of the control animals was 4.72±0.60g/l on D 3. It went to 3.93±0.82 g/l in animals treated with […] of COR 1988 and to 3.61±0.73 g/l in animals treated with 100 mg/kg. The reduction of glycemia are significant.

## O=c1c(OC2CCCCC2)c(-c2ccc(O)c(O)c2)oc2cc(O)cc(O)c12 [COR 1983, 3-cyclohexyloxy-5,7-3',4'-tetrahydroxyflavone]
Aldose reductase
  IC50: 1580 nM
[1]
  reduction in cholesterolemia: 24%
mice; mice, orally, in water with 6% gum, dose of 1 g/kg
  mortality: no mortality
mice; mouse, in vivo
  mortality: did not cause any mortality
Toxicity in mice
  mortality: 10%

## CCOc1c(-c2ccc(O)c(O)c2)oc2cc(O)ccc2c1=O [COR 1987, 3-Ethoxy-7,3',4'trihydroxyflavone]
Aldose reductase
  IC50: 501 nM

## CS(=O)(=O)Oc1c(-c2ccc(O)c(O)c2)oc2cc(O)cc(O)c2c1=O [COR 1988, 3-methanesulfonyloxy-3',4',5,7-tetrahydroxyflavone]
Aldose reductase
  IC50: 251 nM
mice; mice, orally, in water with 6% gum, up to a dose of 3 g/kg
  mortality: did not cause any mortality
[2]; treated with 25 mg/kg
  inositol level in sciatic nerves: 1.593 ± 0.109 mg/kg
[2]; treated with 50 mg/kg D-2 to D+3, 3rd day
  sorbitol level in sciatic nerves: 0.608 ± 0.049 mg/kg
[2]; treated with 50 mg/kg
  inositol level in sciatic nerves: 1.430 ± 0.104 mg/kg
  glycemia: 3.93 ± 0.82 g/L
[2]; treated with 100 mg/kg D-2 to D+3, 3rd day
  sorbitol level in sciatic nerves: 0.482 ± 0.091 mg/kg
[2]; treated with 100 mg/kg
  inositol level in sciatic nerves: 1.402 ± 0.130 mg/kg
  glycemia: 3.61 ± 0.73 g/L

## Cc1ccc(S(=O)(=O)Oc2c(-c3ccc(O)c(O)c3)oc3cc(O)cc(O)c3c2=O)cc1 [COR 1990, 3-Paratoluenesulfonyloxy-5,7,3',4'-tetrahydroxyflavone]
Aldose reductase
  IC50: 3160 nM
